pKi: −log10 of the molar value. Where two headings read alike, the source gives them in different places.
Experiments:
human H3 receptor = target: T1, human H3 receptor (Homo sapiens, UniProt Q9Y5N1); test: Human H3 radioligand binding ([3H]-N-alpha-methylhistamine, SPA)
T1 construct: expressed in transfected cells
Procedure, shortened: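 SPA competition binding on membranes from CHO cells stably expressing human H3 receptor (10 μg protein/well) with ~1 nM [3H]-N-alpha-methylhistamine and compound at 0.01 nM-30 μM. Incubation 4 h at room temperature in 50 mM Tris-HCl pH 7.4, 5 mM MgCl2, 0.1% BSA; non-specific binding defined with 10 μM clobenpropit.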

[1] = target: T2, rat histamine H3 receptor (Rattus norvegicus, UniProt Q9QYN8); test: Rat H3 radioligand binding ([3H]-N-alpha-methylhistamine, SPA)
T2 construct: encoding the entire 445-amino-acid rat histamine H3 receptor; expressed in transfected cells; membrane preparation
T2 sequence (Q9QYN8 whole entry): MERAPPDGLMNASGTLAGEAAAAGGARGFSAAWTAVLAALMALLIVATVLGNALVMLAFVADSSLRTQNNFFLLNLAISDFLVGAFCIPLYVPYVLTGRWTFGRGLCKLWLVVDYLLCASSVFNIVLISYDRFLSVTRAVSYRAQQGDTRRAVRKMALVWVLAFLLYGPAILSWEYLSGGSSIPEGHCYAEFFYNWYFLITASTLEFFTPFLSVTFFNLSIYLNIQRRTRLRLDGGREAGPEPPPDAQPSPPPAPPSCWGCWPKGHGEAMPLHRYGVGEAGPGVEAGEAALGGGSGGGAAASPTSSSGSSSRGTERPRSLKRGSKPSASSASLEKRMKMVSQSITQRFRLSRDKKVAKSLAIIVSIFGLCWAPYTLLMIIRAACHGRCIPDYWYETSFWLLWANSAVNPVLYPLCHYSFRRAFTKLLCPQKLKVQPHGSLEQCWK
Procedure, shortened: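 Membranes from CHO-A3 cells stably expressing full-length rat H3 receptor (10 μg protein/well) incubated 4 h at room temperature, protected from light, with ~1 nM [3H]-N-alpha-methylhistamine and compound (0.01 nM-30 μM) in 50 mM Tris HCl pH 7.4, 5 mM MgCl2, 0.1% BSA. Binding read by SPA; 10 μM clobenpropit defined non-specific binding.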

[2] = human H3 binding, Table D, read-out: Human H3 Ki
[3] = rat H3 binding, Table D, read-out: Rat H3 Ki
[4] = Table C, human H3 binding, read-out: Human H3 Ki
[5] = Table C, rat H3 binding, read-out: Rat H3 Ki
[6] = Table A, human H3 binding, read-out: Human Ki
[7] = Table A, rat H3 binding, read-out: Rat Ki
[8] = Human H3 binding, Table B, Examples 136-362, read-out: hum H3 binding Ki
[9] = Rat H3 binding, Table B, Examples 136-362, read-out: rat H3 binding Ki

T1 sequence (Q9Y5N1 whole entry): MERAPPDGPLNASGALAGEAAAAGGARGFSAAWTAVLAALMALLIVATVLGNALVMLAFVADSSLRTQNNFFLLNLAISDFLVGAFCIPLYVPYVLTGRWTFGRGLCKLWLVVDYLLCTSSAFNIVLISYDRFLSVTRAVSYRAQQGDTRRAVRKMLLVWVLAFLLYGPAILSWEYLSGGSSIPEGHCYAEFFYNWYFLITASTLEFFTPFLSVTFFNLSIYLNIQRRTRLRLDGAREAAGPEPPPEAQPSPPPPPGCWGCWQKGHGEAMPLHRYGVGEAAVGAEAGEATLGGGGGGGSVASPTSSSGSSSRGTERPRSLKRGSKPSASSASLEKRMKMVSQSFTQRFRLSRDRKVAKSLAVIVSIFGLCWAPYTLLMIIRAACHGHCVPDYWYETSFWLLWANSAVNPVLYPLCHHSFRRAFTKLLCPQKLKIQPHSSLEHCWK

SMILES | pKi (human H3 receptor; [2]) | pKi [1, 3] | melting point | also measured
COc1cc(-c2ccc3c(c2)COC2(CCN(C4CCC4)CC2)O3)c(F)cn1 [Example 754] | > 6.70 | > 6.70 | 135 to 136 °C | –
O=S1(=O)CCN(c2ccc3c(c2)CCC2(CCN(C4CCC4)CC2)O3)CC1 [Example 406] | – | – | > 285 °C (dec.) | pKi (human H3 receptor; [4]): > 6.70; pKi [1, 5]: > 6.70
N#Cc1ccc(-c2ccc3c(c2)COC2(CCN(C4CCC4)CC2)O3)cn1 [Example 34] | – | – | 159.8 to 160.7 °C | pKi (human H3 receptor; [6]): > 6.70; pKi [1, 7]: > 6.70
COc1ccc2nc(C)n(-c3ccc4c(c3)COC3(CCN(C5CCC5)CC3)O4)c(=O)c2c1 [Example 794] | > 6.70 | > 6.70 | 155 to 157 °C | –
O=c1c(Cl)c(-c2ccc3c(c2)COC2(CCN(C4CCC4)CC2)O3)ccn1CC(F)(F)F [Example 784] | > 6.70 | > 6.70 | 71.2 to 73.6 °C | –
c1ccc(COc2ccc(-c3ccc4c(c3)CCC3(CCN(C5CCC5)CC3)O4)cn2)cc1 [Example 533] | – | – | 115 to 117 °C | pKi (human H3 receptor; read-out: Human H3 Ki): > 6.70; pKi ([1]; read-out: Rat H3 kI): > 6.70
OC1(c2ccc3c(c2)CCC2(CCN(C4CCC4)CC2)O3)CCSCC1 [Example 532] | – | – | 146 to 148 °C | pKi (human H3 receptor; read-out: Human H3 Ki): > 6.70; pKi ([1]; read-out: Rat H3 kI): > 6.70
COc1ccc(Oc2ccc3c(c2)CCC2(CCN(C4CCC4)CC2)O3)cn1 [Example 481] | – | – | 232 to 234 °C | pKi (human H3 receptor; read-out: Human H3 Ki): > 6.70; pKi ([1]; read-out: Rat H3 kI): > 6.70
CN(C)C(=O)N1CCC(COc2ccc3c(c2)CCC2(CCN(C4CCC4)CC2)O3)CC1 [Example 576] | > 6.70 | > 6.70 | 230 to 232 °C | –
OC1(c2ccc3c(c2)COC2(CCN(C4CCC4)CC2)O3)COC1 [Example 505] | – | – | 180 to 183 °C | pKi (human H3 receptor; read-out: Human H3 Ki): > 6.70; pKi ([1]; read-out: Rat H3 kI): > 6.70
CC(C)Oc1cc(-c2ccc3c(c2)COC2(CCN(C4CCC4)CC2)O3)c(Cl)cn1 [Example 780] | > 6.70 | > 6.70 | 131 to 132 °C | –
COc1ccc(-c2ccc3c(c2)COC2(CCN(C4CCC4)CC2)O3)cn1 [Example 22] | – | – | 122 to 124 °C | pKi (human H3 receptor; [6]): > 6.70; pKi [1, 7]: > 6.70
O=C(N1CCCC1)N1CCN(c2ccc3c(c2)COC2(CCN(C4CCC4)CC2)O3)CC1 [Example 307] | – | – | 132 to 135 °C | pKi (human H3 receptor; [8]): > 6.70; pKi [1, 9]: > 6.70
O=c1ccc(-c2ccc3c(c2)COC2(CCN(CC4CCOCC4)CC2)O3)c[nH]1 [Example 722] | 6.00 to 6.70 | < 6.00 | 245 to 248 °C | –
Cc1c(-c2ccc(=O)[nH]c2)ccc2c1COC1(CCN(C3CCC3)CC1)O2 [Example 552] | – | – | 246 to 249 °C | pKi (human H3 receptor; read-out: Human H3 Ki): > 6.70; pKi ([1]; read-out: Rat H3 kI): > 6.70
c1cc2c(cc1OCC1CCNCC1)CCC1(CCN(C3CCC3)CC1)O2 [Example 592] | > 6.70 | > 6.70 | 292 to 294 °C | –
O=C(N1CCOCC1)N1CCN(c2ccc3c(c2)CCC2(CCN(C4CCC4)CC2)O3)CC1 [Example 386] | – | – | 292 to 294 °C | pKi (human H3 receptor; [4]): > 6.70; pKi [1, 5]: > 6.70
O=C(Nc1ccc2c(c1)COC1(CCN(C3CCC3)CC1)O2)c1ccc2[nH]ncc2c1 [Example 338] | – | – | 249 to 250 °C | pKi (human H3 receptor; [8]): > 6.70; pKi [1, 9]: > 6.70
c1ccc(Nc2ccc3c(c2)COC2(CCN(C4CCC4)CC2)O3)cc1 [Example 124] | – | – | 52 to 57 °C | pKi (human H3 receptor; [6]): > 6.70; pKi [1, 7]: > 6.70
[O-][S+]1CCC(c2ccc3c(c2)COC2(CCN(C4CCC4)CC2)O3)CC1 (stereo not drawn) [Example 473] | – | – | 187 to 189 °C | pKi (human H3 receptor; read-out: Human H3 Ki): > 6.70; pKi ([1]; read-out: Rat H3 kI): > 6.70

SMILES | pKi (human H3 receptor; [2]) | pKi [1, 3] | melting point | also measured
COCCNC(=O)N1CCN(c2ccc3c(c2)COC2(CCN(C4CCC4)CC2)O3)CC1 [Example 275] | – | – | 66.8 to 68.4 °C | pKi (human H3 receptor; [8]): > 6.70; pKi [1, 9]: > 6.70
O=C(NC[C@H]1CCCO1)c1ccc(-c2ccc3c(c2)COC2(CCN(C4CCC4)CC2)O3)cc1 [Example 67] | – | – | 184 to 186 °C | pKi (human H3 receptor; [6]): > 6.70; pKi [1, 7]: > 6.70
O=C(NC1CCOCC1)c1ccc(-c2ccc3c(c2)COC2(CCN(C4CCC4)CC2)O3)cc1 [Example 362] | – | – | 216 to 218 °C | pKi (human H3 receptor; [8]): > 6.70; pKi [1, 9]: > 6.70
O=C1N(c2ccncc2)CCN1c1ccc2c(c1)CCC1(CCN(C3CCC3)CC1)O2 [Example 210] | – | – | 208 to 210 °C | pKi (human H3 receptor; [8]): > 6.70; pKi [1, 9]: > 6.70
O[C@@H]1CCN(c2ccc3c(c2)COC2(CCN(C4CCC4)CC2)O3)C1 [Example 347] | – | – | 70.2 to 72.2 °C | pKi (human H3 receptor; [8]): > 6.70; pKi [1, 9]: > 6.70
Cc1ccc2nc(C)n(-c3ccc4c(c3)COC3(CCN(C5CCC5)CC3)O4)c(=O)c2c1 [Example 792] | > 6.70 | > 6.70 | 149 to 152 °C | –
COc1nc(C)c(-c2ccc3c(c2)COC2(CCN(C4CCC4)CC2)O3)cc1C#N [Example 796] | > 6.70 | > 6.70 | 215 to 217 °C | –
COc1cc(C(=O)O)ccc1-c1ccc2c(c1)COC1(CCN(C3CCC3)CC1)O2 [Example 699] | > 6.70 | > 6.70 | 282 to 284 °C | –
CNC(=O)c1ccc(-c2ccc3c(c2)COC2(CCN(C4CCC4)CC2)O3)cc1OC [Example 633] | > 6.70 | > 6.70 | 175 to 177 °C | –
c1c[nH]c(-c2ccc3c(c2)COC2(CCN(C4CCC4)CC2)O3)c1 [Example 702] | > 6.70 | > 6.70 | 179 to 180 °C | –
COc1ccc(-c2ccc3c(c2)CCC2(CCN(C4CCC4)CC2)O3)c(C)n1 [Example 797] | > 6.70 | > 6.70 | 72 to 73 °C | –
Cc1nnc(C2CC=C(c3ccc4c(c3)COC3(CCN(C5CCC5)CC3)O4)CC2)o1 (stereo not drawn) [Example 689] | > 6.70 | > 6.70 | 76.4 to 78.4 °C | –
Nc1ccc2c(c1)COC1(CCN(C3CCC3)CC1)O2 [Example 350] | – | – | 160 to 162 °C | pKi (human H3 receptor; [8]): 6.00 to 6.70; pKi [1, 9]: 6.00 to 6.70
N#Cc1ccc(C(=O)Nc2ccc3c(c2)CCC2(CCN(C4CCC4)CC2)O3)cc1 [Example 224] | – | – | 186 to 188 °C | pKi (human H3 receptor; [8]): > 6.70; pKi [1, 9]: > 6.70
COc1ccc(C(O)c2ccc3c(c2)COC2(CCN(C4CCC4)CC2)O3)cn1 (stereo not drawn) [Example 504] | – | – | 78 to 80 °C | pKi (human H3 receptor; read-out: Human H3 Ki): > 6.70; pKi ([1]; read-out: Rat H3 kI): > 6.70
COCc1noc(COc2ccc3c(c2)CCC2(CCN(C4CCC4)CC2)O3)n1 [Example 672] | > 6.70 | > 6.70 | 178 to 179 °C | –
Cc1n[nH]c(C)c1-c1ccc2c(c1)COC1(CCN(C3CCC3)CC1)O2 [Example 200] | – | – | 110 to 112 °C | pKi (human H3 receptor; [8]): > 6.70; pKi [1, 9]: > 6.70
Cc1nc2ccccc2c(=O)n1-c1ccc2c(c1)COC1(CCN(C3CCC3)CC1)O2 [Example 787] | > 6.70 | > 6.70 | 206 to 207 °C | –
Cc1nc(-c2ccc3c(c2)COC2(CCN(C4CCC4)CC2)O3)cs1 [Example 74] | – | – | 151 to 153 °C | pKi (human H3 receptor; [6]): > 6.70; pKi [1, 7]: > 6.70
CS(=O)(=O)c1cncc(-c2ccc3c(c2)COC2(CCN(C4CCC4)CC2)O3)c1 [Example 655] | > 6.70 | > 6.70 | 148 to 149 °C | –
